The source of these data is patent US5112382A, “Halopropargyl compounds, compositions, uses and processes of preparation” (Rohm and Haas Company, priority 1990, dated 1992).

Converted amounts (≈) assume the structure as drawn.

In assay [1] the test system is Aureobasidium pullulans. Nature of the assay: MIC, broth two-fold serial dilution test, Apul. The assay is classed as cell-based. The settings on record: read-out: Minimum Inhibitory Concentration (MIC). As for the experimental part:
(§1) A minimum inhibitory concentration (MIC) value is obtained using a broth, two-fold serial dilution test performed as follows: […] A volume of the stock solution is dispensed into culture media to give an initial starting test concentration of 500 ppm compound. The test is carried out by adding and equal volume of broth to each vessel in the dilution series, except for the first vessel. The first vessel contains twice the volume of broth plus the initial concentration of test compound. One half of the broth from the first vessel is transferred to the second vessel. After being mixed, one half the resulting volume is removed from the second vessel and transferred to the third vessel. The entire cycle is repeated sufficiently to give a series of concentrations amounting to 500, 250, 125, 63, 31, 16, 8, and 4 ppm (or 100, 50, 25, 12.5, 6.2, 3.1, 1.6, and 0.8), respectively. Each vessel is then inoculated with a cell suspension of the appropriate test organism. Bacteria are grown in both and fungi on agar slats for a time and at a temperature appropriate to the species being tested. At the end of the growth period, the broth is vortexed to disperse the cells. In the case of fungi, the pores are harvested by pipetting water onto the slant and dislodging the spores with a sterile loop. The cell/spore suspension is standardized by controlling incubation time, temperature, and the volume of the diluent. The suspension is then used to inoculate the vessels containing the broth compound. The vessels are then incubated at the appropriate temperature. After the incubation, the vessels are examined for growth/no growth. The minimum inhibitory concentration (MIC) is defined as the lowest concentration of compound that results in complete inhibition of growth of the test organism.

Assay [2] deals with Staphylococcus aureus. Nature of the assay: MIC, broth two-fold serial dilution test, Saur. Particulars: read-out: Minimum Inhibitory Concentration (MIC). Format: cell-based. As for the experimental part: as §1
Assay [3] relates to Botrytis cinerea. In words: In-vitro plant fungicide test, BOC. Particulars: read-out: % Control.
Assay [4] has as its system Cochliobolus sativus. In words: In-vitro plant fungicide test, HEL. Particulars: Bipolaris sorokiniana, read-out: % Control; for inhibition of growth at 25 ppm: rate 25 PPM; for inhibition of growth at 50 ppm: rate 50 PPM. The assay is classed as cell-based.
The test system of assay [5] is Rhizoctonia solani. Nature of the assay: In-vitro plant fungicide test, RHI. Format: cell-based. Particulars: read-out: % Control; for inhibition of growth at 25 ppm: rate 25 PPM; for inhibition of growth at 50 ppm: rate 50 PPM.
In assay [6] the test system is Phytophthora capsici. Nature of the assay: In-vitro plant fungicide test, PHY. The assay is classed as cell-based. The settings on record: read-out: % Control; for inhibition of growth at 25 ppm: rate 25 PPM; for inhibition of growth at 50 ppm: rate 50 PPM.
Assay [7] relates to Pseudomonas aerugenosa. In words: MIC, broth two-fold serial dilution test, Psae. Particulars: read-out: Minimum Inhibitory Concentration (MIC). Format: cell-based. As to the method:
as §1

The subject of assay [8] is Pseudomonas fluorescens. In words: MIC, broth two-fold serial dilution test, Psfl. Format: cell-based. The settings on record: read-out: Minimum Inhibitory Concentration (MIC). As to the method:
as §1

The subject of assay [9] is Fusarium roseum. In words: microbe, parasite or virus in culture. The settings on record: Fusarium sambucinum, read-out: % Control.
The test system of assay [10] is Escherichia coli. In words: MIC, broth two-fold serial dilution test, Ecol. The assay is classed as cell-based. The settings on record: read-out: Minimum Inhibitory Concentration (MIC). As to the method:
as §1

Assay [11] deals with Pythium ultimum. Nature of the assay: In-vitro plant fungicide test, PYU. The assay is classed as cell-based. Particulars: Globisporangium ultimum, read-out: % Control; for inhibition of growth at 25 ppm: rate 25 PPM; for inhibition of growth at 50 ppm: rate 50 PPM.
In assay [12] the test system is Aspergillus niger. In words: MIC, broth two-fold serial dilution test, Anig. Format: cell-based. The settings on record: read-out: Minimum Inhibitory Concentration (MIC). As for the experimental part: as §1
Assay [13] deals with Xanthomonas campestris. Nature of the assay: In-vitro plant fungicide test, XAN. Particulars: XAN, read-out: % Control; for inhibition of growth at 25 ppm: rate 25 PPM; for inhibition of growth at 50 ppm: rate 50 PPM. The assay is classed as cell-based.
For assay [14], the system named is Piricularia oryzae. Nature of the assay: microbe, parasite or virus in culture. Format: cell-based. Particulars: read-out: % Control.
In assay [15] the test system is Erysiphe graminis (f. sp. tritici). In words: whole plant or invertebrate. The assay is classed as in vivo. The settings on record: Blumeria graminis.
Assay [16] relates to Puccinia recondita (f. sp. tritici Races PKB and PLD). Nature of the assay: whole plant or invertebrate. The assay is classed as in vivo. Particulars: 240 h.
Assay [17] has as its system Phytophthora infestans. Nature of the assay: whole plant or invertebrate. Format: in vivo. The settings on record: in Solanum lycopersicum, 96 h, read-out: % Control.
Assay [18] concerns Piricularia oryzae. Nature of the assay: whole plant or invertebrate. Particulars: Pyricularia oryzae, 192 h, read-out: % Control. Format: in vivo.
The test system of assay [19] is Pseudoperonospora cubensis. In words: whole plant or invertebrate. The assay is classed as in vivo. Particulars: in Cucumis sativus, 168 h.
For assay [20], the system named is Septoria nodorum. In words: In-vitro plant fungicide test, SEP. Format: cell-based. Particulars: Parastagonospora nodorum, read-out: % Control; for inhibition of growth at 50 ppm: rate 50 PPM.
Assay [21] concerns Septoria glume blotch of wheat. Nature of the assay: whole plant or invertebrate. The settings on record: Triticum aestivum. The assay is classed as in vivo.

`COC(=O)N(CC#CBr)N=Cc1ccc(Cl)cc1` [Compound 1, N'-Methoxycarbonyl-N'-3-bromopropargyl 4-chlorobenzaldehyde hydrazone]: the MIC in assay [1] was 63 µg/mL (≈ 191 µM); in [2], above 500 µg/mL; in [7], 250 µg/mL (≈ 759 µM); in assay [8] it was above 500 µg/mL; in assay [10] it was above 500 µg/mL; in assay [12], above 500 µg/mL. The inhibition of growth at 25 ppm in assay [3], in assay [4], in assay [5], in assay [6], in assay [9] and in assay [11] was 0% throughout. Moreover, the inhibition of growth at 25 ppm in assay [13] and in assay [14] was 0% throughout.

On to `O=CN(CC#CBr)N=Cc1ccc(Cl)cc1` [Compound 2, N'-Formyl-N'-3-bromopropargyl 4-chlorobenzaldehyde hydrazone], for which the MIC is 63 µg/mL (≈ 210 µM) in assay [1]; above 500 µg/mL in assay [2]; 250 µg/mL (≈ 835 µM) in assay [7]; above 500 µg/mL in [8]; above 500 µg/mL in [10]; above 500 µg/mL in [12]. Further, the inhibition of growth at 25 ppm is 0% in assay [3]; 0% in assay [4]; 0% in assay [5]; 75% in [6]; 0% in assay [9]; 0% in assay [11]. Further, the inhibition of growth at 25 ppm was determined as 0% in assay [13] and 50% in [14]. The pest or weed control at 600 ppm in assay [15] was determined as 0%; in assay [16] it was 0%; in assay [17], 50%.

For `COC(=O)N(CC#CI)N=Cc1ccccc1` [Compound 3, N'-Methoxycarbonyl-N'-3-iodopropargyl benzaldehyde hyrazone], the MIC in assay [1] was below 4 µg/mL; in [2] it was 125 µg/mL (≈ 365 µM); in assay [7], 250 µg/mL (≈ 731 µM); in [8], above 500 µg/mL; in assay [10] it was above 500 µg/mL; in assay [12] it was below 4 µg/mL. In addition, the inhibition of growth at 25 ppm worked out at 0% in assay [3]; 0% in [4]; 100% in assay [5]; 75% in assay [6]; 75% in assay [9]; 75% in assay [11]. In addition, the inhibition of growth at 25 ppm in assay [13] and in assay [14] was 0% throughout. For the same molecule, the inhibition of growth at 50 ppm in assay [3] worked out at 0%; in assay [4], 0%; in [5] it was 100%; in [6] it was 100%; in assay [9], 100%; in [11], 100%. Moreover, the inhibition of growth at 50 ppm in [13] stood at 0%; in [20] it was 75%; in assay [14], 95%. Moreover, the pest or weed control at 200 ppm in assay [15] was 50%; in assay [16] it was 50%; in assay [17], 80%; in [18], 90%; in assay [19], 99%.

For `COC(=O)N(CC#CI)N=Cc1ccc(C)cc1` [Compound 4, N'-Methoxycarbonyl-N'-3-iodopropargyl 4-methylbenzaldehyde hydrazone], the MIC in assay [1] was 8 µg/mL (≈ 22.5 µM); in [2] it was 16 µg/mL (≈ 44.9 µM); in [7], 125 µg/mL (≈ 351 µM); in assay [8], 125 µg/mL (≈ 351 µM); in [10], 250 µg/mL (≈ 702 µM); in assay [12], below 4 µg/mL. Moreover, the pest or weed control at 200 ppm turned out to be 0% in [15]; 50% in assay [16]; 80% in [17]; 90% in assay [18]; 50% in assay [21]; 95% in assay [19].

Take `O=C(c1ccccc1)N(CC#CI)N=Cc1ccccc1` [Compound 6, N'-Benzoyl-N'-3-iodopropargyl benzaldehyde hydrazone]: the MIC amounted to 3 µg/mL (≈ 7.73 µM) in [1]; 50 µg/mL (≈ 129 µM) in [2]; 25 µg/mL (≈ 64.4 µM) in assay [7]; 50 µg/mL (≈ 129 µM) in assay [8]; 50 µg/mL (≈ 129 µM) in [10]; 6 µg/mL (≈ 15.5 µM) in [12]. Also, the inhibition of growth at 25 ppm in assay [3] amounted to 0%; in [4] it was 0%; in assay [5], 0%; in [6], 100%; in assay [9], 0%; in assay [11] it was 100%. The values for the inhibition of growth at 25 ppm in assay [13], in assay [20] (rate 25 PPM) and in assay [14] were 0%, 100% and 100%, respectively.

On to `COC(=O)N(CC#CI)N=Cc1ccc(Cl)c(Cl)c1` [Compound 11, N'-Methoxycarbonyl-N'-3-iodopropargyl 3,4-dichlorobenzaldehyde hydrazone], for which the MIC in assay [1] is below 4 µg/mL; in assay [2], 8 µg/mL (≈ 19.5 µM); in assay [7] it was above 500 µg/mL; in [8], above 500 µg/mL; in assay [10], above 500 µg/mL; in assay [12], below 4 µg/mL. Also, the inhibition of growth at 50 ppm in assay [3] stood at 50%; in assay [4], 100%; in assay [5], 100%; in assay [6] it was 90%; in [9] it was 100%; in assay [11] it was 0%. Also, the inhibition of growth at 50 ppm in assay [13] amounted to 0%; in assay [20] it was 90%; in [14], 100%. The pest or weed control at 200 ppm in assay [15] stood at 0%; in assay [17] it was 80%; in [18], 90%; in [21] it was 0%; in [19] it was 95%.

`O=C(c1ccccc1)N(CC#CI)N=Cc1cccc([N+](=O)[O-])c1` [Compound 12, N'-Benzoyl-N'-3-iodopropargyl 3-nitrobenzaldehyde hydrazone]: the MIC in [1] is 100 µg/mL (≈ 231 µM); in assay [2], above 100 µg/mL; in assay [7] it was above 100 µg/mL; in [8], above 100 µg/mL; in assay [10], above 100 µg/mL; in assay [12], above 100 µg/mL. Besides, the inhibition of growth at 50 ppm was found to be 0% in [3]; 0% in [4]; 95% in assay [5]; 0% in [6]; 0% in [9]; 0% in assay [11]. Further, the inhibition of growth at 50 ppm in assay [13] was 0%; in [20] it was 0%; in [14] it was 100%.
